Earlier results as cited in patent publication US7208580B2, “Atomic structure of the hemalbumin complex and its use in designing therapeutic compounds” (New Century Pharmaceuticals, Inc., priority 2002, dated 2007).

Target: human albumin (Homo sapiens, UniProt P02768)
Sequence (P02768 25-609): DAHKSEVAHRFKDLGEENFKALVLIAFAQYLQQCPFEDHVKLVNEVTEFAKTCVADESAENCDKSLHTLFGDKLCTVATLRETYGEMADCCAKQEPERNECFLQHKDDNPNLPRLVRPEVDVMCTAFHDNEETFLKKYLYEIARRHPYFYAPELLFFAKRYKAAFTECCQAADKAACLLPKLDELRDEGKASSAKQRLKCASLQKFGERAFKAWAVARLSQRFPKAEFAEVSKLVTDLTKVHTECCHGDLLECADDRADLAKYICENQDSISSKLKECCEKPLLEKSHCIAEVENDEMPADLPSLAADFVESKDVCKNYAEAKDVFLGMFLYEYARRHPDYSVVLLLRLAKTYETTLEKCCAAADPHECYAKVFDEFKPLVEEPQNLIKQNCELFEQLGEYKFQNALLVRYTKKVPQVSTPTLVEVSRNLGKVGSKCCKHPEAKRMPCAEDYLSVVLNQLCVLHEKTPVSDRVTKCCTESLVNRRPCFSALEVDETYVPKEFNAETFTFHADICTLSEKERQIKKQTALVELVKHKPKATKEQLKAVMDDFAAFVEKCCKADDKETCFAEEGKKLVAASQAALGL

KA, single high affinity site (hemin binding to human albumin, association constant from reference (9)) [M⁻¹] | Compound | binding constants for protoporphyrin at the specialized high affinity site (albumins from primates, printed as '1×10^8 Ka')
 | C=CC1=C(C)c2cc3[nH]c(cc4nc(cc5[nH]c(cc1n2)c(C)c5CCC(=O)O)C(CCC(=O)O)=C4C)c(C)c3C=C [protoporphyrin, Fe^III-Protoporphyrin-IX] | ~1×10^8
1.1e+08 | Fe^III Protoporphyrin-IX (Cl) [Hemin] | 
